Data published in the NIST ThermoML archive (doi:10.1021/je4010678).

Test: xn = mol fraction of the nth substance listed
Conditions: 101 kPa, Liquid, Scientific instruments device model 9700

[I-].[K+] [potassium iodide] + C[S+](C)[O-]
Conditions	electrical conductivity [S/m]
293.15 K, x1 = 0.0001281	0.00573
293.15 K, x1 = 0.0001586	0.00687
293.15 K, x1 = 0.0003312	0.0147
293.15 K, x1 = 0.0006135	0.0267
293.15 K, x1 = 0.001095	0.0457
293.15 K, x1 = 0.002002	0.0778
293.15 K, x1 = 0.005707	0.183
293.15 K, x1 = 0.01	0.348
293.15 K, x1 = 0.0197	0.605
293.15 K, x1 = 0.04	0.8279
293.15 K, x1 = 0.0499	0.9283
293.15 K, x1 = 0.0707	0.9369
295.15 K, x1 = 0.0001281	0.00602
295.15 K, x1 = 0.0001586	0.00718
295.15 K, x1 = 0.0003312	0.0153
295.15 K, x1 = 0.0006135	0.0279
295.15 K, x1 = 0.001095	0.0475
295.15 K, x1 = 0.002002	0.0809
295.15 K, x1 = 0.005707	0.19
295.15 K, x1 = 0.01	0.362
295.15 K, x1 = 0.0197	0.632
295.15 K, x1 = 0.04	0.8651
295.15 K, x1 = 0.0499	0.9694
295.15 K, x1 = 0.0707	0.9785
297.15 K, x1 = 0.0001281	0.0063
297.15 K, x1 = 0.0001586	0.00749
297.15 K, x1 = 0.0003312	0.0159
297.15 K, x1 = 0.0006135	0.0291
297.15 K, x1 = 0.001095	0.0493
297.15 K, x1 = 0.002002	0.0841
297.15 K, x1 = 0.005707	0.198
297.15 K, x1 = 0.01	0.377
297.15 K, x1 = 0.0197	0.659
297.15 K, x1 = 0.04	0.9006
297.15 K, x1 = 0.0499	1.013
297.15 K, x1 = 0.0707	1.023
299.15 K, x1 = 0.0001281	0.00656
299.15 K, x1 = 0.0001586	0.00782
299.15 K, x1 = 0.0003312	0.0165
299.15 K, x1 = 0.0006135	0.0303
299.15 K, x1 = 0.001095	0.0511
299.15 K, x1 = 0.002002	0.0872
299.15 K, x1 = 0.005707	0.205
299.15 K, x1 = 0.01	0.392
299.15 K, x1 = 0.0197	0.686
299.15 K, x1 = 0.04	0.9366
299.15 K, x1 = 0.0499	1.051
299.15 K, x1 = 0.0707	1.067
301.15 K, x1 = 0.0001281	0.00683
301.15 K, x1 = 0.0001586	0.00814
301.15 K, x1 = 0.0003312	0.0171
301.15 K, x1 = 0.0006135	0.0315
301.15 K, x1 = 0.001095	0.0529
301.15 K, x1 = 0.002002	0.0904
301.15 K, x1 = 0.005707	0.213
301.15 K, x1 = 0.01	0.406
301.15 K, x1 = 0.0197	0.713
301.15 K, x1 = 0.04	0.9737
301.15 K, x1 = 0.0499	1.09
301.15 K, x1 = 0.0707	1.112
303.15 K, x1 = 0.0001281	0.00711
303.15 K, x1 = 0.0001586	0.00847
303.15 K, x1 = 0.0003312	0.0177
303.15 K, x1 = 0.0006135	0.0328
303.15 K, x1 = 0.001095	0.0547
303.15 K, x1 = 0.002002	0.0936
303.15 K, x1 = 0.005707	0.22
303.15 K, x1 = 0.01	0.421
303.15 K, x1 = 0.0197	0.741
303.15 K, x1 = 0.04	1.011
303.15 K, x1 = 0.0499	1.132
303.15 K, x1 = 0.0707	1.152
305.15 K, x1 = 0.0001281	0.00737
305.15 K, x1 = 0.0001586	0.0088
305.15 K, x1 = 0.0003312	0.0184
305.15 K, x1 = 0.0006135	0.034
305.15 K, x1 = 0.001095	0.0566
305.15 K, x1 = 0.002002	0.0969
305.15 K, x1 = 0.005707	0.228
305.15 K, x1 = 0.01	0.436
305.15 K, x1 = 0.0197	0.768
305.15 K, x1 = 0.04	1.047
305.15 K, x1 = 0.0499	1.169
305.15 K, x1 = 0.0707	1.199
307.15 K, x1 = 0.0001281	0.00763
307.15 K, x1 = 0.0001586	0.0092
307.15 K, x1 = 0.0003312	0.0191
307.15 K, x1 = 0.0006135	0.0352
307.15 K, x1 = 0.001095	0.0584
307.15 K, x1 = 0.002002	0.1
307.15 K, x1 = 0.005707	0.235
307.15 K, x1 = 0.01	0.451
307.15 K, x1 = 0.0197	0.794
307.15 K, x1 = 0.04	1.083
307.15 K, x1 = 0.0499	1.208
307.15 K, x1 = 0.0707	1.244
309.15 K, x1 = 0.0001281	0.0079
309.15 K, x1 = 0.0001586	0.00954
309.15 K, x1 = 0.0003312	0.0198
309.15 K, x1 = 0.0006135	0.0364
309.15 K, x1 = 0.001095	0.0603
309.15 K, x1 = 0.002002	0.103
309.15 K, x1 = 0.005707	0.243
309.15 K, x1 = 0.01	0.465
309.15 K, x1 = 0.0197	0.823
309.15 K, x1 = 0.04	1.124
309.15 K, x1 = 0.0499	1.246
309.15 K, x1 = 0.0707	1.286
311.15 K, x1 = 0.0001281	0.00818
311.15 K, x1 = 0.0001586	0.00991
311.15 K, x1 = 0.0003312	0.0205
311.15 K, x1 = 0.0006135	0.0376
311.15 K, x1 = 0.001095	0.0621
311.15 K, x1 = 0.002002	0.106
311.15 K, x1 = 0.005707	0.251
311.15 K, x1 = 0.01	0.48
311.15 K, x1 = 0.0197	0.849
311.15 K, x1 = 0.04	1.161
311.15 K, x1 = 0.0499	1.282
311.15 K, x1 = 0.0707	1.342
313.15 K, x1 = 0.0001281	0.00848
313.15 K, x1 = 0.0001586	0.0103
313.15 K, x1 = 0.0003312	0.0212
313.15 K, x1 = 0.0006135	0.0389
313.15 K, x1 = 0.001095	0.064
313.15 K, x1 = 0.002002	0.11
313.15 K, x1 = 0.005707	0.258
313.15 K, x1 = 0.01	0.494
313.15 K, x1 = 0.0197	0.874
313.15 K, x1 = 0.04	1.195
313.15 K, x1 = 0.0499	1.319
313.15 K, x1 = 0.0707	1.374
315.15 K, x1 = 0.0001281	0.00879
315.15 K, x1 = 0.0001586	0.0107
315.15 K, x1 = 0.0003312	0.022
315.15 K, x1 = 0.0006135	0.0401
315.15 K, x1 = 0.001095	0.0658
315.15 K, x1 = 0.002002	0.113
315.15 K, x1 = 0.005707	0.266
315.15 K, x1 = 0.01	0.508
315.15 K, x1 = 0.0197	0.9
315.15 K, x1 = 0.04	1.233
315.15 K, x1 = 0.0499	1.366
315.15 K, x1 = 0.0707	1.408
317.15 K, x1 = 0.0001281	0.00918
317.15 K, x1 = 0.0001586	0.011
317.15 K, x1 = 0.0003312	0.0227
317.15 K, x1 = 0.0006135	0.0413
317.15 K, x1 = 0.001095	0.0676
317.15 K, x1 = 0.002002	0.116
317.15 K, x1 = 0.005707	0.274
317.15 K, x1 = 0.01	0.522
317.15 K, x1 = 0.0197	0.922
317.15 K, x1 = 0.04	1.271
317.15 K, x1 = 0.0499	1.39
317.15 K, x1 = 0.0707	1.469
319.15 K, x1 = 0.0001281	0.00954
319.15 K, x1 = 0.0001586	0.0114
319.15 K, x1 = 0.0003312	0.0236
319.15 K, x1 = 0.0006135	0.0424
319.15 K, x1 = 0.001095	0.0694
319.15 K, x1 = 0.002002	0.119
319.15 K, x1 = 0.005707	0.281
319.15 K, x1 = 0.01	0.536
319.15 K, x1 = 0.0197	0.945
319.15 K, x1 = 0.04	1.309
319.15 K, x1 = 0.0499	1.434
319.15 K, x1 = 0.0707	1.527
321.15 K, x1 = 0.0001281	0.01
321.15 K, x1 = 0.0001586	0.0118
321.15 K, x1 = 0.0003312	0.0245
321.15 K, x1 = 0.0006135	0.0436
321.15 K, x1 = 0.001095	0.0712
321.15 K, x1 = 0.002002	0.122
321.15 K, x1 = 0.005707	0.289
321.15 K, x1 = 0.01	0.549
321.15 K, x1 = 0.0197	0.968
321.15 K, x1 = 0.04	1.344
321.15 K, x1 = 0.0499	1.466
321.15 K, x1 = 0.0707	1.567
323.15 K, x1 = 0.0001281	0.0104
323.15 K, x1 = 0.0001586	0.0122
323.15 K, x1 = 0.0003312	0.0254
323.15 K, x1 = 0.0006135	0.0447
323.15 K, x1 = 0.001095	0.0729
323.15 K, x1 = 0.002002	0.125
323.15 K, x1 = 0.005707	0.296
323.15 K, x1 = 0.01	0.563
323.15 K, x1 = 0.0197	0.988
323.15 K, x1 = 0.04	1.386
323.15 K, x1 = 0.0499	1.523
323.15 K, x1 = 0.0707	1.607
